Laboratory results published in US20160214972A1, “COMPOUNDS AND METHODS FOR THE TARGETED DEGRADATION OF ANDROGEN RECEPTOR” (Arvinas, Inc., priority 2015, published 2016).
Entries after “also recorded” stand apart in the source; their conditions may differ.

Tests used:
[1] = system: LNCaP cells transduced with AR F876L construct; assay: Anti-proliferation in LNCaP F876L (CellTiterGlo); type: cell-based; details: Charcoal Stripped Serum media, 7 days
Procedure: FIG. 3. Anti-proliferation in LNCaP F876L. […] LNCaP cells transduced with AR F876L construct were cultured in Charcoal Stripped Serum containing media.
LNCaP cells transduced with AR F876L construct were cultured in Charcoal Stripped Serum containing media. […] CellTiterGlo reagent (Promega) was employed to assess proliferation.

AR = biological target: T1, AR (Homo sapiens, UniProt P10275+P40337, T878A); assay: AR degradation of PROTAC is E3 ligase dependent (LNCaP cells); type: cell-based; details: 24 hours
T1 construct: endogenous in cells; host or cells: LNCaP cells
Source text: FIG. 7A and FIG. 7B. AR degradation of PROTAC is E3 ligase dependent.

Androgen Receptor = Androgen Receptor ELISA assay (PathScan AR ELISA) in LNCaP and/or VCaP cells; type: cell-based; details: highest percentage of Androgen Receptor degradation observed
prostate = assay: Prostate involution in C57B6 mouse model; type: in vivo; details: 12-week old male C57BL/6 mice; IP, QD, 1 and 3 mpk for 10 days
Source text: FIG. 5. Prostate involution in C57B6 mouse model.

VCaP xenograft = assay: Tumor growth inhibition in VCaP xenograft model; type: in vivo; details: castrated CB17 scid mice with VCaP tumors; enzalutamide PO, QD, 30 mpk; Example 163 IP, QD, 30, 10 and 3 mpk
Source text: FIG. 6. Tumor growth inhibition in VCaP xenograft model. VCaP cells were implanted into CB17 scid mice subcutaneously. Once the tumors were palpable, the mice were castrated, leading to temporary tumor stasis.
VCaP cells were implanted into CB17 scid mice subcutaneously. Once the tumors were palpable, the mice were castrated, leading to temporary tumor stasis.

T1 sequence (P10275 whole entry T878A): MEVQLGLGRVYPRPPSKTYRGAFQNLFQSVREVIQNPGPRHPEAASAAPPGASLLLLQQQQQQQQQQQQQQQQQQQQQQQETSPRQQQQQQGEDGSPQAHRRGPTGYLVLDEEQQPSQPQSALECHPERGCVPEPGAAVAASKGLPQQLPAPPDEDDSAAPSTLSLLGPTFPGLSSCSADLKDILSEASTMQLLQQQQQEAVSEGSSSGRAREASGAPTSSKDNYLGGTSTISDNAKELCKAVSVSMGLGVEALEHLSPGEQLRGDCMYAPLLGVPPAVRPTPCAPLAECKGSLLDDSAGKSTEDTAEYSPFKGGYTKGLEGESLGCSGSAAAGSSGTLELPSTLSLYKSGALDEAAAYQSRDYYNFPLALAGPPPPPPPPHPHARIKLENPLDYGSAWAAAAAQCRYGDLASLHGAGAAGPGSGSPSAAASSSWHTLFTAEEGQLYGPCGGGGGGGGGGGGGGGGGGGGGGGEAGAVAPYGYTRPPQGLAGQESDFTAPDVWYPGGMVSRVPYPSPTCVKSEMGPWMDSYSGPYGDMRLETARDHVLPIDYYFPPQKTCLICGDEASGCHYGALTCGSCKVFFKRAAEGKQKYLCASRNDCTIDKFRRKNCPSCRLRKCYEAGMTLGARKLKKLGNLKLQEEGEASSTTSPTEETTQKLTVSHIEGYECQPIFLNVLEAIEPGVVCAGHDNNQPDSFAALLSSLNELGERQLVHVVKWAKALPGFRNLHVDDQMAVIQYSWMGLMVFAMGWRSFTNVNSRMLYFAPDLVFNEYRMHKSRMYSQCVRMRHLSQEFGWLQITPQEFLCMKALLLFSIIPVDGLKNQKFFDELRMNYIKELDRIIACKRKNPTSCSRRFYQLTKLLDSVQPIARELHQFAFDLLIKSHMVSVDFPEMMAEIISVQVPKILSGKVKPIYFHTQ
T1 sequence (P40337 whole entry): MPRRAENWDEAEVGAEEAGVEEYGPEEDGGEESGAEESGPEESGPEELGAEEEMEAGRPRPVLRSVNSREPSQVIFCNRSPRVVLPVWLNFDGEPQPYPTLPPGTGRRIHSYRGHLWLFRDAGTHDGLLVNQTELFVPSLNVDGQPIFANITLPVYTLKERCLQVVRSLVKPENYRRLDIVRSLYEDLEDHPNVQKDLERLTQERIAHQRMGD
T1 sequence (Q15369 whole entry partner): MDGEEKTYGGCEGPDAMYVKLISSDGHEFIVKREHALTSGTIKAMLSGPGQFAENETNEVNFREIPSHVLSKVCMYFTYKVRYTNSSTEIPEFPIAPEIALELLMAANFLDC
T1 sequence (Q15370 whole entry partner): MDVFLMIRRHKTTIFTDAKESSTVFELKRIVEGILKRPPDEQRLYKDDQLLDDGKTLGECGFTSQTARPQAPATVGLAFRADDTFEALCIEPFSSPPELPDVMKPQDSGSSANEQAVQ
T1 sequence (Q13617 whole entry partner): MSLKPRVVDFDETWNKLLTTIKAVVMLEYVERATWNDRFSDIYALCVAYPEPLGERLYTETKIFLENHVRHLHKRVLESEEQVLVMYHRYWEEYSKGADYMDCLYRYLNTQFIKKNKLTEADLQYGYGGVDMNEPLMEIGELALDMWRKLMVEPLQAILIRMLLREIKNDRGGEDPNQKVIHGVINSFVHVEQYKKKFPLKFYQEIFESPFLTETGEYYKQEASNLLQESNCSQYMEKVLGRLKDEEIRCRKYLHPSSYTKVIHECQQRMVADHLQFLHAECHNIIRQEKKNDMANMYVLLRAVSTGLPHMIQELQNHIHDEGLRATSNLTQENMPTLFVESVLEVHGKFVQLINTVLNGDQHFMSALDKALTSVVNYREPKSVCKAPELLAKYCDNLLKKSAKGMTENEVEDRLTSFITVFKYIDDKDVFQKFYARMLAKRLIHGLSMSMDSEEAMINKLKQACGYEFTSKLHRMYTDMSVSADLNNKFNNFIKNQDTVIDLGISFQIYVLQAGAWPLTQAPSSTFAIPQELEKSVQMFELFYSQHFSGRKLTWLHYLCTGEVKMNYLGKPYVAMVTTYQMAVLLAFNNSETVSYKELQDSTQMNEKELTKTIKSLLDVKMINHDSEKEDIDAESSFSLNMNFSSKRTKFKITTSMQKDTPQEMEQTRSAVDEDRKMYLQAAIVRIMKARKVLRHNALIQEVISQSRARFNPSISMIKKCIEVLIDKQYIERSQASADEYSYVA
T1 sequence (P62877 whole entry partner): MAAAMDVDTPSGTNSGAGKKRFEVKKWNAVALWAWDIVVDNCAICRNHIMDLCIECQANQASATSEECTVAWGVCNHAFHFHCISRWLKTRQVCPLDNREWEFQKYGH

SMILES: Cc1ncsc1-c1ccc(CNC(=O)[C@@H]2C[C@@H](O)CN2C(=O)[C@@H](NC(=O)COCCCOCCCCCOc2ccc(N3C(=S)N(c4ccc(C#N)c(C(F)(F)F)c4)C(=O)C3(C)C)cc2)C(C)(C)C)cc1 [Example 1, (2S,4R)-1-((S)-2-(2-(3-(5-(4-(3-(4-cyano-3-(trifluoromethyl)phenyl)-5,5-dimethyl-4-oxo-2-thioxoimidazolidin-1-yl)phenoxy)pentyloxy)propoxy)acetamido)-3,3-dimethylbutanoyl)-4-hydroxy-N-(4-(4-methylthiazol-5-yl)benzyl)pyrrolidine-2-carboxamide]
- proliferation of LNCaP F876L cells (agonist activity) [1]: did not exhibit agonist activity; also recorded: Anti-proliferation in LNCaP F876L cells observed
- AR degradation in LNCaP cells (AR): significant degradation of AR
- AR degradation in LNCaP cells in the presence of VHL E3 ligase ligand compound B (AR; 10 uM compound B): greatly diminishes the AR degradation activity

SMILES: Cc1ncsc1-c1ccc(CNC(=O)[C@@H]2C[C@@H](O)CN2C(=O)[C@@H](NC(=O)COCCOCCOc2ccc(-c3ccc(N4C(=S)N(c5ccc(C#N)c(C(F)(F)F)c5)C(=O)C4(C)C)cc3)cc2)C(C)(C)C)cc1 [Example 67, (2S,4R)-1-((S)-2-(2-(2-(2-(4′-(3-(4-cyano-3-(trifluoromethyl)phenyl)-5,5-dimethyl-4-oxo-2-thioxoimidazolidin-1-yl)biphenyl-4-yloxy)ethoxy)ethoxy)acetamido)-3,3-dimethylbutanoyl)-4-hydroxy-N-(4-(4-methylthiazol-5-yl)benzyl)pyrrolidine-2-carboxamide]
- LNCaP Dmax (%) (Androgen Receptor): 72.1%

SMILES: Cc1ncsc1-c1ccc(CNC(=O)[C@@H]2C[C@@H](O)CN2C(=O)[C@@H](NC(=O)COCCCCOc2ccc(C(=O)N[C@H]3C(C)(C)[C@H](Oc4ccc(C#N)c(Cl)c4)C3(C)C)cc2)C(C)(C)C)cc1 [Example 163, (2S,4R)-1-[(2S)-3,3-dimethyl-2-{2-[4-(4-{[trans-3-(3-chloro-4-cyanophenoxy)-2,2,4,4-tetramethylcyclobutyl]carbamoyl}phenoxy)butoxy]acetamido}butanoyl]-4-hydroxy-N-{[4-(4-methyl-1,3-thiazol-5-yl)phenyl]methyl}pyrrolidine-2-carboxamide]
- prostate weights (prostate involution) (prostate): significant reduction in prostate weights; also recorded: significant prostate involution in mice at very low doses
- tumor growth inhibition (VCaP xenograft): Tumor growth inhibition was observed in all treatment arms

SMILES: CNC(=O)c1ccc(N2C(=S)N(c3ccc(C#N)c(C(F)(F)F)c3)C(=O)C2(C)C)cc1F [enzalutamide, reference compound]
- tumor growth inhibition (VCaP xenograft): Tumor growth inhibition was observed in all treatment arms
